Results from US8293781B2, “Indole derivatives having cPLA2 inhibiting activity and applications and production methods of the same” (Daiichi Sankyo Company, Limited, priority 2007, dated 2012).
Counter-ions that a name gives are not always drawn.

Target: T1, cPLA2 crudely purified from the cytoplasm fraction of U937 (Homo sapiens, UniProt P47712)
T1 construct: cPLA2 crudely purified from the cytoplasm fraction of U937; endogenous in cells; host or cells: U937 cells (cytoplasm fraction, crude purification)
T1 sequence (P47712 1-749): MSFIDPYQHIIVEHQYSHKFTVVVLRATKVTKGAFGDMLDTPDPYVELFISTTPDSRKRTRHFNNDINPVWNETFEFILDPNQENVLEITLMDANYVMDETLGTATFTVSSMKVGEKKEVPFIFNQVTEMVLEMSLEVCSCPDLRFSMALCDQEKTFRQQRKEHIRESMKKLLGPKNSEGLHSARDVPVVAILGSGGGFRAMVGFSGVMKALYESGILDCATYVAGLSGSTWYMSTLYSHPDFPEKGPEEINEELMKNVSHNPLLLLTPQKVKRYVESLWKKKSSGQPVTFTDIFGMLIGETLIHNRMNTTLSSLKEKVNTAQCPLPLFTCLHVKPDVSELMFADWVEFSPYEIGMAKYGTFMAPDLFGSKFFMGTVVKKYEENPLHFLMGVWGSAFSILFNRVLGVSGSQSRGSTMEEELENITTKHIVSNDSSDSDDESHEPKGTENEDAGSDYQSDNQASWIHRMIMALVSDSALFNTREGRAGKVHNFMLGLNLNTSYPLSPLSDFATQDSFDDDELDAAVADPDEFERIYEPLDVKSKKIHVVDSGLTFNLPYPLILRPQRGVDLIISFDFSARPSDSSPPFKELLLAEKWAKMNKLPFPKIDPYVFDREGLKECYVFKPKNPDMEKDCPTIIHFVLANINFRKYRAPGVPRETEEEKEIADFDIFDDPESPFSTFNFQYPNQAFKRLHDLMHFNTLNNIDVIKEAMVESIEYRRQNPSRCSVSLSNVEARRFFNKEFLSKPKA
Test: Measurement of cPLA2 inhibitory activity (release of [14C]-arachidonic acid from phosphatidyl choline liposome)
Assay type: biochemical
Settings: not given
Method in brief: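 The read-out is radioactivity from extracted [14C]-arachidonic acid, freed over 60 min at 37° C from liposomes of 14C-arachidonyl phosphatidylcholine (10 μM PC in the added solution). Buffer was 50 mM HEPES pH 7.5 with Ca2+, DTT, NaCl and BSA. IC50 was derived from inhibition relative to enzyme control minus no-enzyme control.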

In the case of `O=C(O)/C=C/c1ccc2c(c1)c(C(=O)c1ccc3ccccc3c1)cn2-c1ccccc1` [Example 53, (2E)-3-[3-(2-naphthoyl)-1-phenyl-1H-indol-5-yl]-2-propenoic acid], the IC50 is reported as 5520 nM.

Same assay, conditions: cPLA2 from U937 cytoplasm fraction, [14C]arachidonyl-phosphatidyl choline liposome, 37° C., 60 minutes; read-out: cPLA2 inhibitory activity, 50% inhibiting concentration IC50

Going from `O=C(O)/C=C/c1ccc2c(c1)c(C(=O)C1(c3ccccc3)CC1)cn2-c1ccccc1` [Example 39, (2E)-3-{1-phenyl-3-[(1-phenylcyclopropyl)carbonyl]-1H-indol-5-yl}-2-propenoic acid] to `O=C(O)CCc1ccc2c(c1)c(C(=O)C1(c3ccccc3)CC1)cn2-c1ccccc1` [Example 40, 3-{1-phenyl-3-[(1-phenylcyclopropyl)carbonyl]-1H-indol-5-yl}propanoic acid], the IC50 falls from 10800 nM to 2300 nM (4.7-fold). The second is the more potent here.

Compared with `O=C(O)CCc1ccc2c(c1)c(CCc1ccccc1)cn2-c1ccccc1` [Example 16, 3-[1-phenyl-3-(2-phenylethyl)-1H-indol-5-yl]propanoic acid], `NC(=O)CCc1ccc2c(c1)c(CCc1ccccc1)cn2-c1ccccc1` [Example 22, 3-[1-phenyl-3-(2-phenylethyl)-1H-indol-5-yl]propanamide] is higher in IC50: 75 nM for the first, > 100000 nM for the second.

`COc1ccc(-n2cc(CCc3ccccc3)c3cc(/C=C/C(=O)O)ccc32)cc1` [Example 74, (2E)-3-[1-(4-methoxyphenyl)-3-(2-phenylethyl)-1H-indol-5-yl]-2-propenoic acid] and `O=C(O)/C=C/c1ccc2c(c1)c(CCc1ccccn1)cn2-c1ccc(OCc2ccccc2)cc1` [Example 267, (2E)-3-{1-[4-(benzyloxy)phenyl]-3-(2-pyridin-2-ylethyl)-1H-indol-5-yl}-2-propenoic acid] are within 1.5-fold of each other in IC50: 157 nM for the first, 110 nM for the second.

First: O=C(O)CCc1ccc2c(c1)c(CCc1ccccc1)cn2-c1cc(F)c(O)c(F)c1 [Example 289, 3-[1-(3,5-difluoro-4-hydroxyphenyl)-3-(2-phenylethyl)-1H-indol-5-yl]propanoic acid]
Second: O=C(O)CCc1ccc2c(c1)c(CCc1ccccn1)cn2-c1cc(F)c(O)c(F)c1 [Example 298, 3-[1-(3,5-difluoro-4-hydroxyphenyl)-3-(2-pyridin-2-ylethyl)-1H-indol-5-yl]propanoic acid hydrochloride]
The IC50 of the first is 5.1-fold lower: 182 nM for the first, 923 nM for the second.

First: CC(C)(C)C(=O)Nc1ccc(-n2cc(CCc3ccccc3)c3cc(CCC(=O)O)ccc32)cc1 [Example 93, 3-[1-{4-[(2,2-dimethylpropanoyl)amino]phenyl}-3-(2-phenylethyl)-1H-indol-5-yl]propanoic acid 2-amino-2-(hydroxymethyl)propane-1,3-diol salt (1:1)]
Second: O=C(O)CCc1ccc2c(c1)c(CCc1ccccc1)cn2-c1ccc(Cl)cc1 [Example 105, 3-[1-(4-chlorophenyl)-3-(2-phenylethyl)-1H-indol-5-yl]propanoic acid 2-amino-2-(hydroxymethyl)propane-1,3-diol salt (1:1)]
The IC50 of the first is 3.1-fold higher: 112 nM for the first, 36 nM for the second.

Going from `COCc1ccc(-n2cc(CCc3ccccc3)c3cc(CCC(=O)O)ccc32)cc1` [Example 216, 3-{1-[4-(methoxymethyl)phenyl]-3-(2-phenylethyl)-1H-indol-5-yl}propanoic acid] to `O=C(O)CCc1ccc2c(c1)c(CCc1ccccc1)cn2-c1ccc(COC(F)F)cc1` [Example 293, 3-[1-{4-[(difluoromethoxy)methyl]phenyl}-3-(2-phenylethyl)-1H-indol-5-yl]propanoic acid], the IC50 rises from 86 nM to 191 nM (2.2-fold).

First: O=C(O)CCc1ccc2c(c1)c(Cc1ccc3ccccc3c1)cn2-c1ccccc1 [Example 54, 3-[3-(2-naphthylmethyl)-1-phenyl-1H-indol-5-yl]propanoic acid]
Second: Cc1cccc(-n2cc(CCc3ccccc3)c3cc(CCC(=O)O)ccc32)c1 [Example 97, 3-[1-(3-methylphenyl)-3-(2-phenylethyl)-1H-indol-5-yl]propanoic acid 2-amino-2-(hydroxymethyl)propane-1,3-diol salt (1:1)]
The IC50 of the first is 62-fold higher: 6120 nM for the first, 99 nM for the second.

First: CN(C)c1ccc(-n2cc(CCc3ccccc3)c3cc(CCC(=O)O)ccc32)cc1 [Example 86, 3-{1-[4-(dimethylamino)phenyl]-3-(2-phenylethyl)-1H-indol-5-yl}propanoic acid 2-amino-2-(hydroxymethyl)propane-1,3-diol salt (1:1)]
Second: O=C(O)CCc1ccc2c(c1)c(CCc1ccccc1)cn2-c1ccc(OC(F)F)cc1 [Example 189, 3-{1-[4-(difluoromethoxy)phenyl]-3-(2-phenylethyl)-1H-indol-5-yl}propanoic acid]
The IC50 of the first is 1.8-fold lower: 24 nM for the first, 43 nM for the second.

Compared with `O=C(O)CCc1ccc2c(c1)c(CCc1ccccn1)cn2-c1ccc(COC(F)F)cc1` [Example 302, 3-[1-{4-[(difluoromethoxy)methyl]phenyl}-3-(2-pyridin-2-ylethyl)-1H-indol-5-yl]propanoic acid hydrochloride], `CC(O)c1ccc(-n2cc(CCc3ccccn3)c3cc(CCC(=O)O)ccc32)cc1` (stereo not shown) [Example 304, 3-{1-[4-(1-hydroxyethyl)phenyl]-3-(2-pyridin-2-ylethyl)-1H-indol-5-yl}propanoic acid hydrochloride] is higher in IC50: 764 nM for the first, > 3000 nM for the second. The first is the more potent here.

`O=C(O)CCc1ccc2c(c1)c(CCc1ccccc1)cn2-c1ccc([N+](=O)[O-])cn1` [Example 134, 3-[1-(5-nitro-2-pyridinyl)-3-(2-phenylethyl)-1H-indol-5-yl]propanoic acid hydrochloride] and `Nc1ccc(-n2cc(CCc3ccccc3)c3cc(CCC(=O)O)ccc32)nc1` [Example 135, 3-[1-(5-amino-2-pyridinyl)-3-(2-phenylethyl)-1H-indol-5-yl]propanoic acid] are within 1.5-fold of each other in IC50: 211 nM for the first, 277 nM for the second.

First: O=C(O)CCc1ccc2c(c1)c(CCc1ccccc1)cn2-c1ccc(OCCN2CCCC2)cc1 [Example 222, 3-{3-(2-phenylethyl)-1-[4-(2-pyrrolidin-1-ylethoxy)phenyl]-1H-indol-5-yl}propanoic acid]
Second: O=C(O)CCc1ccc2c(c1)c(CCc1ccccc1)cn2-c1ccc(OCCc2ccncc2)cc1 [Example 255, 3-{3-(2-phenylethyl)-1-[4-(2-pyridin-4-ylethoxy)phenyl]-1H-indol-5-yl}propanoic acid]
The IC50 of the first is 4.1-fold higher: 49 nM for the first, 12 nM for the second.

Compared with `O=C(O)CCc1ccc2c(c1)c(CCc1ccccc1)cn2-c1ccc(OCCCc2cccnc2)cc1` [Example 258, 3-{3-(2-phenylethyl)-1-[4-(3-pyridin-3-ylpropoxy)phenyl]-1H-indol-5-yl}propanoic acid hydrochloride], `O=C(O)CCc1ccc2c(c1)c(CCc1ccccc1)cn2-c1ccc(OCc2ccccc2)nc1` [Example 199, 3-{1-[6-(benzyloxy)pyridin-3-yl]-3-(2-phenylethyl)-1H-indol-5-yl}propanoic acid] is 490-fold higher in IC50: 2 nM for the first, 986 nM for the second.

First: O=C(O)CCc1ccc2c(c1)c(CCc1ccccc1)cn2-c1cccc(C(=O)N2CCOCC2)c1 [Example 316, 3-{1-[3-(morpholin-4-ylcarbonyl)phenyl]-3-(2-phenylethyl)-1H-indol-5-yl}propanoic acid]
Second: CC(=O)Nc1cccc(-n2cc(CCc3ccccc3)c3cc(CCC(=O)O)ccc32)c1 [Example 169, 3-{1-[3-(acetylamino)phenyl]-3-(2-phenylethyl)-1H-indol-5-yl}propanoic acid]
The IC50 of the first is higher: > 3000 nM for the first, 205 nM for the second. The second is the more potent here.

Going from `Cc1ccc(S(=O)(=O)NC(=O)CCc2ccc3c(c2)c(CCc2ccccc2)cn3-c2ccc(Oc3ccccc3)cc2)cc1` [Example 333] to `O=C(CCc1ccc2c(c1)c(CCc1ccccc1)cn2-c1ccc(Oc2ccccc2)cc1)C(F)(F)F` [Example 330, 1,1,1-trifluoro-4-[1-(4-phenoxyphenyl)-3-(2-phenylethyl)-1H-indol-5-yl]butan-2-one], the IC50 falls from > 3000 nM to 726 nM.

Going from `O=C(CCc1ccc2c(c1)c(CCc1ccccc1)cn2-c1ccc(OC(F)F)cc1)NO` [Example 286, 3-{1-[4-(difluoromethoxy)phenyl]-3-(2-phenylethyl)-1H-indol-5-yl}-N-hydroxypropanamide] to `O=C(O)CCc1ccc2c(c1)c(CCc1ccccc1)cn2-c1cccc(OC(F)F)c1` [Example 185, 3-{1-[3-(difluoromethoxy)phenyl]-3-(2-phenylethyl)-1H-indol-5-yl}propanoic acid], the IC50 falls from > 3000 nM to 278 nM. The second is the more potent here.

`CCC(C(=O)c1cn(-c2ccccc2)c2ccc(/C=C/C(=O)O)cc12)c1ccccc1` (stereo not shown) [Example 35, (2E)-3-[1-phenyl-3-(2-phenylbutanoyl)-1H-indol-5-yl]-2-propenoic acid] and `CC(=O)Nc1ccccc1-n1cc(CCc2ccccc2)c2cc(CCC(=O)O)ccc21` [Example 153, 3-{1-[2-(acetylamino)phenyl]-3-(2-phenylethyl)-1H-indol-5-yl}propanoic acid] are within 1.5-fold of each other in IC50: 5810 nM for the first, 7960 nM for the second.

`CN(C)S(=O)(=O)c1cccc(-n2cc(CCc3ccccc3)c3cc(CCC(=O)O)ccc32)c1` [Example 322, 3-[1-{3-[(dimethylamino)sulfonyl]phenyl}-3-(2-phenylethyl)-1H-indol-5-yl]propanoic acid] was tested, and the IC50 was 1910 nM.
